In publication PMC9126592, “sp^2-Iminosugars targeting human lysosomal β-hexosaminidase as pharmacological chaperone candidates for late-onset Tay-Sachs disease” (Journal of Enzyme Inhibition and Medicinal Chemistry, 2022):

What follows are compounds tested against T1, recombinant human O-GlcNAcase (hOGA) (Homo sapiens, UniProt O60502) (assay: Inhibition of recombinant human O-GlcNAcase (resorufin N-acetyl-β-D-glucosaminide)). Details: read-out: IC50 against OGA.
T1 construct: the N-terminal region of hOGA, comprising amino acids 11–396; the C-terminal region, comprising amino acids 535–715; His6 (N); His6 followed by 3C-protease cleavage site (N); made in house; host or cells: E. coli Bl21(DE3)-Gold
T1 sequence (O60502 11-396): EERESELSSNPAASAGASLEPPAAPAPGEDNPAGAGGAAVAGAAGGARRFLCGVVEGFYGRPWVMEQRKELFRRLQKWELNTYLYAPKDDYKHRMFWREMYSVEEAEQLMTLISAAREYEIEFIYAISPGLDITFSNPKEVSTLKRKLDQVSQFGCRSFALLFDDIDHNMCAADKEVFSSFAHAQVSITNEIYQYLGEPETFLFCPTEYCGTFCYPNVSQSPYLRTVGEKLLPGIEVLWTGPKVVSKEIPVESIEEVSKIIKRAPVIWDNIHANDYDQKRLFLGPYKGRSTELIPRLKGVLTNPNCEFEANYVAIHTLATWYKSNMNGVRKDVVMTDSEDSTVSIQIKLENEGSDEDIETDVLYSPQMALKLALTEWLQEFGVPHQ
T1 sequence (O60502 535-715): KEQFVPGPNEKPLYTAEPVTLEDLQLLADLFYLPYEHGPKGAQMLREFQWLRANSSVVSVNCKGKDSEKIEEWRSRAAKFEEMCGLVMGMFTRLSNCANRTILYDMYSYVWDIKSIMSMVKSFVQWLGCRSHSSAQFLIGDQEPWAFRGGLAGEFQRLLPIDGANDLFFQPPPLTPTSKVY
Format: biochemical
Source text: The gene of the longest isoform of hOGA (hOGA-L; Uniprot Accession number: O60502) was synthesised in a codon-optimised form for recombinant expression in Escherichia coli. The successful expression construct encoded the N-terminal region of hOGA, comprising amino acids 11–396, and the C-terminal region, comprising amino acids 535–715. The N-terminal construct was cloned in the vector pACYC-Duet (Millipore) using the sequence and ligation-independent cloning method in frame with an N-terminal His6 tag. The C-terminal construct was cloned into the vector pET-YSBLIC3C27 with an N-terminal His6 tag followed by a 3 C-protease cleavage site using the same method. The nucleotide sequences of all made constructs were confirmed by sequencing. Both vectors were simultaneously transformed into E. coli Bl21(DE3)-Gold (Agilent) for subsequent protein expression. Cells were grown in 2 L TB-medium to an OD600 of ∼1.0 and protein synthesis was then induced by adding IPTG to a final concentration of 0.1 mM. Protein expression was carried out at 16 °C with an induction time of 20 h. The cells were harvested by centrifugation at 4,500 × g for 20 min, flash frozen and stored at −20 °C until required. For purification of the hOGA complex, cells were resuspended in 50 mM HEPES pH 7.0, 750 mM NaCl, 20 mM imidazole, and 0.5 mM DTT (resuspension buffer). Cells were lysed using a French Press at 25 kPsi. The lysate was cleared by centrifugation at 50,000 g for 1 h, and the supernatant was passed through a 10 ml HisTrap FF column (GE Healthcare) pre-equilibrated with resuspension buffer. The bound hOGA was purified by gradient elution over 10 column volumes using 0% to 50% of elution buffer (50 mM HEPES pH 7.0, 750 mM NaCl, 500 mM imidazole and 0.5 mM DTT). hOGA-containing fractions were combined, concentrated by ultrafiltration using Vivaspin columns (Sartorius) with a molecular weight cut-off (MWCO) of 30 kDa, and applied to a Superdex S200 column (GE Healthcare) pre-equilibrated with size-exclusion buffer (10 mM HEPES pH 7.0, 250 mM NaCl, 1 mM DTT). Fractions corresponding to the dimeric form of hOGA were combined and concentrated to 20 mg/mL by ultrafiltration with a Vivaspin (MWCO: 30 kDa) column, flash frozen using liquid nitrogen, and stored at −80 °C until required.
Inhibition assays were run at 0.2 nM [hOGA] in the same buffer, in the presence or absence of various concentrations of inhibitors and at a fixed substrate concentration of 25 µM and 1% DMSO. First, inhibitor was serially diluted to the desired range of concentrations in 2% DMSO buffer. Next, 50 µL of inhibitor solutions at various concentrations in 2% DMSO Buffer was added to 50 μl of 0.8 nM enzyme and allowed to incubate at 25 °C for 5 min. 100 µL of 50 µM and 1% DMSO substrate was then added and reaction mixture was immediately mixed and aliquoted in 45 µL triplicates to a CORNING 384 well black plate. Fluorescence signal was measured continuously for 20 min at 37 °C in a BioTek Neo 2 Plate reader set at excitation and emission wavelengths of 572 and 610 nm, respectively. Max reaction rates for all inhibitor concentrations were calculated within Gen5 BioTek reader software. % Activity was subsequently calculated for each inhibitor concentration against the max reaction rate of uninhibited hOGA.

| Structure (SMILES) | IC50 |
| --- | --- |
| CC(=O)NC1CN2C(=NCc3ccccc3)SCC2C(O)C1O (stereo not drawn) [Compound 7, 2-Acetamido-1,2-dideoxy-5-N,6-S-(N’-benzyliminomethylidene)-6-thiogalactonojirimycin] | 25 µM |

Same assay, conditions: recombinant human O-GlcNAcase; read-out: Ki OGA

| Structure (SMILES) | Ki |
| --- | --- |
| CC(=O)NC1CN2C(=Nc3ccccc3)SCC2C(O)C1O (stereo not drawn) [Compound 8, 2-Acetamido-1,2-dideoxy-5-N,6-S-(N’-phenyliminomethylidene)-6-thiogalactonojirimycin] | > 100 µM |
| CCCCCCCCN=C1SCC2C(O)C(O)C(NC(C)=O)CN12 (stereo not drawn) [Compound 6, 2-Acetamido-1,2-dideoxy-5-N,6-S-(N’-octyliminomethylidene)-6-thiogalactonojirimycin] | > 100 µM |
| CC(=O)N[C@H]1CN(C(=S)NCc2ccccc2)[C@H](CO)[C@H](O)[C@@H]1O [Compound 3, 2-Acetamido-1,2-dideoxy-5-N-(N’-benzylthiocarbamoyl)galactonojirimycin] | > 100 µM |
| CC(=O)N[C@H]1CN(C(=S)Nc2ccccc2)[C@H](CO)[C@H](O)[C@@H]1O [Compound 4, 2-Acetamido-1,2-dideoxy-5-N-(N’-phenylthiocarbamoyl)galactonojirimycin] | > 100 µM |
| CC(=O)NC1CN2C(=NCc3ccccc3)SCC2C(O)C1O (stereo not drawn) [Compound 7, 2-Acetamido-1,2-dideoxy-5-N,6-S-(N’-benzyliminomethylidene)-6-thiogalactonojirimycin] | 25 µM |
| CCCCNC(=S)N1C[C@H](NC(C)=O)[C@@H](O)[C@@H](O)[C@H]1CO [Compound 1, 2-Acetamido-1,2-dideoxy-5-N-(N’-butylthiocarbamoyl)galactonojirimycin] | > 100 µM |
| CCCCN=C1SCC2C(O)C(O)C(NC(C)=O)CN12 (stereo not drawn) [Compound 5, 2-Acetamido-1,2-dideoxy-5-N,6-S-(N’-butyliminomethylidene)-6-thiogalactonojirimycin] | > 100 µM |
| CCCCCCCCNC(=S)N1C[C@H](NC(C)=O)[C@@H](O)[C@@H](O)[C@H]1CO [Compound 2, 2-Acetamido-1,2-dideoxy-5-N-(N’-octylthiocarbamoyl)galactonojirimycin] | > 100 µM |
